Measurements taken from patent US20240269170A1, “Treatment of Inflammatory Conditions or Diseases” (Queen Mary University of London, priority 2021, published 2024).

Tested on: Arg-1
Assay: Arg-1 expression in bone marrow monocyte-derived macrophages differentiated in vitro, flow cytometry
Format: cell-based, mouse
Method: (B) Mice were administered K/B×N serum on days 0, 2 and 9 then on day 12 they were treated 2×10^6 PKH67-labelled monocytes isolated from arthritic mice and incubated with either vehicle (PBS+0.1% EtOH) or 1 nM MCTR3 for 90 min via i.v injection. After 10 days joints were harvested, cells were liberated that the expression of Arg-1 was evaluated in PKH67^+CD64^+ cells using flow cytometry. Results are from n=10 mice per group. Statistical differences were evaluated using a Mann-Whitney U test. (C) Inflammatory arthritis was induced in C57BL/6 mice and bone marrow-derived monocytes were isolated and treated as in A and Arg-1 expression was evaluated using flow cytometry. Results are mean±SEM and expressed as percentage change from cells incubated with vehicle alone. n=8 per group from two separate experiments. Statistical differences were evaluated using one-sample Wilcoxon signed rank test. (D) Mice were given K/B×N serum (via i.p. injection) on days 0, 2 and 9. […] On day 22, joints were collected and the expression of Arg-1 in PKH67^+ CD64^+ cells was evaluated using flow cytometry. Results are mean±SEM and expressed as percentage change from vehicle group. n=5 mice per group. Statistics differences were evaluated Mann-Whitney U test. […]

Compound	ability of MCTR3 to upregulate Arg-1 in vitro (monocytes incubated with 10 μM RG108 for 45 min before 1 nM MCTR3)	Arg-1 expression in MDM differentiated in vitro (1 nM MCTR3 for 24 hours on monocytes)
O=C(O)C(Cc1c[nH]c2ccccc12)N1C(=O)c2ccccc2C1=O (centres unmarked) [RG108]	reversed	
CC/C=C\C/C=C\C[C@H](O)[C@@H](/C=C/C=C/C=C\C/C=C\CCC(=O)O)SC[C@H](N)C(=O)O [MCTR3, 13R-cysteinyl, 14S-hydroxy-4Z, 7Z, 9E, 11E, 13R, 14S, 16Z, 19Z-docosahexaenoic acid]		upregulate
